Measurements from US20260242738A1, “ALK5 INHIBITORS FOR EFFICIENT DERIVATION OF MESENCHYMAL STEM CELLS FROM EMBRYONIC STEM CELLS” (SCRIPPS HEALTH, priority 2022, published 2026).
Values joined by “and” are separate entries in the source; they are usually repeats but may differ in a detail not shown here. Equal entries are not always repeated. “Also recorded” adds a separate entry of the source.

Assays:
[1] = system: ES-MSC; experiment: ES-MSC seeded scaffolds implanted subcutaneously into a nude mouse; format: in vivo; conditions: 1 week in vitro, then subcutaneous in nude mouse for 5 weeks
Excerpt: ES-MSC derived from treatment with ALK-5 inhibitor SB525334, as described in Example 1, produced meniscus cartilage-like tissues when seeded upon blow spun collagen scaffolds in in vitro and in vivo.

[2] = system: HADC100 ESC; experiment: Flow cytometry of MSC surface markers after ESC to MSC differentiation with ALK-5 inhibitors; format: cell-based, human; design: key to CD90 surface marker expression level / CD105 surface marker expression level / CD34 surface marker expression level / CD45 surface marker expression level / CD73 surface marker expression level: % cells positive relative to isotype control background; conditions: for triple positive for CD73, CD90 and CD105: co-expression analysis; for CD90 surface marker expression level / CD34 surface marker expression level / CD45 surface marker expression level / CD73 surface marker expression level / CD105 surface marker expression level: HADC100 ESC, SB525334 10 μM 5 days, GW788388 5 μM 5 days, ± standard deviation; for CD90 surface marker expression level: in %; for CD34 surface marker expression level / CD45 surface marker expression level / CD73 surface marker expression level / CD105 surface marker expression level: in % (unit assumed); for MSC differentiation / differentiating ES-MSC: overall statement of the discussion
Experimental: (§1) An overview of the differentiation process is provided in FIG. 1, panel K. To create cell clusters or embryoid bodies of uniform size, ESCs were removed from CellStart culture using Accutase® for 2-5 minutes until single cells were observed. […] After 24 hours, the cell clusters were suspended at 2.5-3×10^5 cells per ml in ultra-low adherent 6 well plates (Corning) in StemPro-34 serum free medium (ThermoFisher) supplemented with 2 mM L-glutamine (ThermoFisher Scientific), 50 μg/ml Ascorbic acid (Stemcell Technologies, Vancouver, Canada) and 1.8 μl/ml ITS-G (100× Insulin-Transferrin-Selenium; ThermoFisher); termed as “complete SP-34 medium”.
(§2) The medium was changed every 2 days by removing cell clusters into 15 ml sterile tubes and permitted to gravity settle for 10 minutes at room temperature. Most of the media was removed using a pipette to leave approximately 300-500 μl of medium. Freshly made medium (with the appropriate ALK5 inhibitor or DMSO) was replaced at the same volumes and well number into new ultra-low adherent plates.
(§3) After treatment with the appropriate ALK5 inhibitor, the cell clusters were removed by gravity settling and suspended in complete SP-34 medium supplemented with bFGF 20 ng/ml (without any ALK-5 inhibitor or DMSO) and transferred onto fibronectin (FN) coated (10 μg/ml; Fibronectin from human plasma, Sigma-Aldrich, St. Louis, MO) T75 cm^2 flasks (passage zero (P0)). The emerging cells and remaining cell clusters were exposed to Accutase® for 5-10 minutes, gently triturated and counted. The cells were seeded at […] in T75 FN coated flask (P1) and medium changed every 3-4 days until 80-90% confluence. At this point, the cells were detached using Accutase® for continued culture, screened for surface marker phenotype characterization (flow cytometry), placed into 3D cultures to assess chondrogenic differentiation capacity, or preserved in liquid nitrogen.
(§4) Cells were detached using Accutase®, washed and suspended in FACS buffer at a concentration of 0.2×10^6 cells per 100 μl. A panel of CD molecules were used, each with the following fluorochromes: CD34-FITC, CD45-BV510, CD73-APC (BioLegend, San Diego, California) CD90-PE-Cy7, and CD105-BV650 (BD Biosciences, Franklin Lakes, New Jersey). Matching isotype control IgGs with the same fluorochrome conjugates were used for background gating. For compensation of spectral overlap, unstained cells, and individual tubes with each fluorochrome were incubated with Dynabeads to distinguish between positive and negative fluorochrome signals. Data was acquired with the Novocyte flow cytometer (ACEA Biosciences Inc. San Diego, CA) and analyzed using FlowJo software (version 10, FlowJo, LLC, Ashland, OR) to determine percentage positive signal for each molecule relative to isotype background non-specific signal controls.

[3] = system: H9 ESC; experiment: Flow cytometry of MSC surface markers after ESC to MSC differentiation with ALK-5 inhibitor; format: cell-based, human; conditions: H9 ES-MSC
Experimental: as §1, §2, §3
as §4, with “For compensation of spectral overlap, unstained cells, and individual tubes with each fluorochrome were incubated with Dynabeads to distinguish between positive and negative fluorochrome signals.” left out

[4] = system: H9 ESC; experiment: Gene expression profiling of ES-MSC relative to undifferentiated ESC; format: cell-based, human
Experimental: An overview of the differentiation process is provided in FIG. 1, panel K. To create cell clusters or embryoid bodies of uniform size, ESCs were removed from CellStart culture using Accutase® for 2-5 minutes until single cells were observed. Cells (2.5-3×10^5 cells per ml) were suspended in StemPro human ESC serum free medium (ThermoFisher) with 10 μM Y-27632 (EMD Chemicals, Gibbstown, NJ) and 40 ng/ml FGF (Life Technologies, Carlsbad, CA) in a 125 ml spinner culture flask (Corning Inc., Corning, NY) on a magnetic stirrer (CimarecTM Biosystem Slow-Speed Stirrer, ThermoFisher) at 70 rpm for 24 hours at 37° C. with 5% CO2 to form small cell clusters (minimum total cells was 7.5×10^6 in 30 ml). After 24 hours, the cell clusters were suspended at 2.5-3×10^5 cells per ml in ultra-low adherent 6 well plates (Corning) in […] free medium (ThermoFisher) supplemented with 2 mM L-glutamine (ThermoFisher Scientific), 50 μg/ml Ascorbic acid (Stemcell Technologies, Vancouver, Canada) and 1.8 μl/ml ITS-G (100× Insulin-Transferrin-Selenium; ThermoFisher); termed as “complete SP-34 medium”. […] Total RNA was extracted from using the RNeasy kit as recommended by the manufacturer (QIAGEN, Valencia, CA). The High-Capacity cDNA Reverse Transcription Kit (Applied Biosystems, Foster City, California) kit was used to make cDNA and the following verified primer/probe assays were purchased from Applied Biosystems. Expression of the following genes was quantified POU5F1/OCT4 and SOX2 (for pluripotency); FOXA1 and SOX17 (for endoderm); NES and PAX6 (for ectoderm); NKX2-5, MSX1, NCAM1, and SOX9 (for mesoderm); ITGB1/CD29 (for MSC phenotype); and COL1A1, COL2A1, COL10A1, COMP, ACAN, and SOX9 and RUNX2 (for chondrogenesis). Gene expression was normalized to GAPDH as previously reported. Undifferentiated ESC served as a baseline for relative changes in gene expression in differentiated ES-MSC cells. Differentiated ES-MSC cells in monolayer served as baseline for changes in gene expression in pellets or hydrogel constructs.

[5] = system: HUES9 ESC; conditions: 10 μM SB431542, fibronectin, monolayer with 10% FBS; cited from earlier work
[6] = N=4, SB431542 10 μM 10 days, listed as SB52
[7] = ES-MSC relative to undifferentiated ESC
[8] = HADC 100 ES-MSC, SB431542 10 μM 10 days, N=4
[9] = N=4, SB431542 10 μM 10 days, listed as SB43

In the case of `Cc1cccc(-c2[nH]c(C(C)(C)C)nc2-c2ccc3nccnc3c2)n1` [SB525334], the “meniscus cartilage-like tissue, Safranin O staining” value [1] is reported as “strong Safranin O staining profile”, the “triple positive for CD73, CD90 and CD105” value ([2]; HADC 100 ES-MSC) is reported as 87±8% and the “CD90 surface marker expression level” value ([2]; N=4, SB431542 10 μM 10 days) is reported as 93.9±7.6. For the same compound, the “CD34 surface marker expression level” value ([2]; N=4, SB431542 10 μM 10 days) was 1.9 ± 0.9, the “CD45 surface marker expression level” value ([2]; N=4, SB431542 10 μM 10 days) was 1.5 ± 0.5 and the “CD73 surface marker expression level” value ([2]; N=4, SB431542 10 μM 10 days) was 99.2 ± 1.0. For the same compound, the “CD105 surface marker expression level” value ([2]; N=4, SB431542 10 μM 10 days) was 85.4±12.2, the “CD90 surface marker expression level” value [2, 6] was 93.9 ± 7.6 and the “CD105 surface marker expression level” value [2, 6] was 85.4 ± 12.2. The “MSC differentiation / differentiating ES-MSC” value [2] was “successfully induced MSC differentiation; also recorded: equally effective”.

`NC(=O)c1ccc(-c2nc(-c3ccc4c(c3)OCO4)c(-c3ccccn3)[nH]2)cc1` [SB431542] gave a CD73 positive cells ([3]; SB431542 10 μM 10 days, N=5) of 99±1%, a CD90 positive cells ([3]; SB431542 10 μM 10 days, N=5) of 99±1% and a CD105 positive cells ([3]; SB431542 10 μM 10 days, N=5) of 94±4%. The “triple positive for CD73, CD90 and CD105” value ([3]; co-expression analysis) was 92±9%, the “expression of SOX9 and COL2A1 (chondroprogenitor phenotype)” value [4, 7] was “Increased expression” and the “expression of mesoderm specific markers (NCAM1, MSX1, NKX2-5) and MSC marker (ITGB1)” value [4, 7] was “significantly upregulated”. The “expression of pluripotent markers POU5F1 (OCT4) and SOX2” value ([4]; H9 ES-MSC relative to undifferentiated ESC) was “significantly down regulated”, the “enrichment for MSC markers CD44, CD73, CD146, and CD166” value [5] was “highly enriched” and the CD73 positive cells ([2]; HADC 100 ES-MSC) was 94±12% and 93.6±11.8%. The CD90 positive cells [2, 8] was 88±10%, the CD105 positive cells [2, 8] was 86±7% and the “triple positive for CD73, CD90 and CD105” value ([2]; HADC 100 ES-MSC) was 88±8%. For the same compound, the “CD90 surface marker expression level” value ([2]; N=4, SB431542 10 μM 10 days) was 87.6±10.4, the “CD34 surface marker expression level” value ([2]; N=4, SB431542 10 μM 10 days) was 1.8 ± 0.9 and the “CD45 surface marker expression level” value ([2]; N=4, SB431542 10 μM 10 days) was 1.2 ± 0.5. For the same compound, the “CD73 surface marker expression level” value ([2]; N=4, SB431542 10 μM 10 days) was 93.6 ± 11.8, the “CD105 surface marker expression level” value ([2]; N=4, SB431542 10 μM 10 days) was 86.1±6.5 and the “CD90 surface marker expression level” value [2, 9] was 87.6 ± 10.4. For the same compound, the “CD105 surface marker expression level” value [2, 9] was 86.1 ± 6.5 and the “MSC differentiation / differentiating ES-MSC” value [2] was “equally effective”.
